Test results from patent publication EP1769804B1, “hPTH(1-34) for use in preventing or reducing the incidence or severity of vertebral and / or non vertebral fracture in a male human” (priority 1998, dated 2012).
Marks after values point to notes of the source that are not given here.

What was measured:
Format in all cases: in vivo, Macaca fascicularis
Ovariectomized Primates [1] = test: Biomechanical measures of strength in the spine (lumbar vertebrae L-3 and L-4); settings: for A (cross-sectional area) / E (Young's modulus) / Fy (yield force) / S (stiffness): L-3 and L-4 combined, mean ± SEM
Excerpt: (§1) Biomechanical tests were done on lumbar vertebrae L-3 to L-4, the femur neck, humerus midshaft, and on a cortical bone specimen machined from the femur diaphysis (measures defined in Table 2). Conventional static and dynamic histomorphometry were done (measures described in Table 6) on the humerus midshaft, lumbar vertebra L-2, femoral neck, femur midshaft, the radius midshaft and distal radius. Initial statistical analyses compared all groups to vehicle-treated ovariectomized controls. The data is suitable for additional exploratory analyses to examine dose dependency, effects of withdrawal, interactions between outcomes, and changes in time by methods known to those of skill in the art. All assays were conducted and determined by methods known in the art.

Ovariectomized Primates [2] = test: Biomechanical measure of strength of femur neck; design: Fa, Proximal femur neck: unit not given here; settings: for Fa, Proximal femur neck: mean ± SEM
Excerpt: as §1

Ovariectomized Primates [3] = test: Cortical histomorphometry of the humerus midshaft; settings: mean ± SEM
Excerpt: as §1
For certain experimental subjects, cortical bone of the humerus was examined by histomorphometry and by polarized Fourier transform infrared microscopy. The Fourier transform infrared microscopy was conducted by an adaptation of known methods for such microscopy.

[4] = PTH1-W: withdrawal for 6 months after 1 µg/kg for 12 months
[5] = PTH5-W: withdrawal for 6 months after 5 µg/kg for 12 months
[6] = compared to ovariectomized controls
[7] = PTH1-W: withdrawal after 1 µg/kg for 12 months
[8] = PTH5-W: withdrawal after 5 µg/kg for 12 months

For teriparatide [rhPTH(1-34)], the “A (cross-sectional area)” value (Ovariectomized Primates [1]; [4]) was 90.9±2.3 mm^2, the “E (Young's modulus)” value (Ovariectomized Primates [1]; [4]) was 659±42 Mpa and the “Fy (yield force)” value (Ovariectomized Primates [1]; [4]) was 1899±73^a N. The “S (stiffness)” value (Ovariectomized Primates [1]; [4]) was 7401±432^a N/mm, the “E (Young's modulus)” value (Ovariectomized Primates [1]; PTH1: 1 µg/kg for 18 months) was 717±48^a Mpa and the “Fy (yield force)” value (Ovariectomized Primates [1]; PTH1: 1 µg/kg for 18 months) was 1915±105^a N. For the same substance, the “S (stiffness)” value (Ovariectomized Primates [1]; PTH1: 1 µg/kg for 18 months) was 7701 ± 474^a N/mm, the “A (cross-sectional area)” value (Ovariectomized Primates [1]; [5]) was 82.8±2.1 mm^2 and the “E (Young's modulus)” value (Ovariectomized Primates [1]; [5]) was 698±41^a Mpa. For the same substance, the “Fy (yield force)” value (Ovariectomized Primates [1]; [5]) was 1792±39^a N, the “S (stiffness)” value (Ovariectomized Primates [1]; [5]) was 7074±314^a N/mm and the “A (cross-sectional area)” value (Ovariectomized Primates [1]; PTH5: 5 µg/kg for 18 months) was 87.3±2.7 mm^2. For the same substance, the “E (Young's modulus)” value (Ovariectomized Primates [1]; PTH5: 5 µg/kg for 18 months) was 759±36^a Mpa, the “Fy (yield force)” value (Ovariectomized Primates [1]; PTH5: 5 µg/kg for 18 months) was 2113±77^3.0 N and the “S (stiffness)” value (Ovariectomized Primates [1]; PTH5: 5 µg/kg for 18 months) was 8012 ±367^a N/mm. The “increase of strength (Fy) in the vertebrae” value (Ovariectomized Primates [1]; [6]) was “up to 43%”, the “Fa, Proximal femur neck” value (Ovariectomized Primates [2]; [7]) was 1258 ± 52^a and the “Fa, Proximal femur neck” value (Ovariectomized Primates [2]; PTH1: 1 µg/kg for 18 months) was 1235 ± 43^a. For the same substance, the “Fa, Proximal femur neck” value (Ovariectomized Primates [2]; [8]) was 1213 ± 42, the “Fa, Proximal femur neck” value (Ovariectomized Primates [2]; PTH5: 5 µg/kg for 18 months) was 1362 ± 30^a and the “improvement of strength in the femur neck (fu)” value (Ovariectomized Primates [2]; [6]) was “up to 12%”. For the same substance, the “Ac.F (Activation frequency)” value (Ovariectomized Primates [3]; [7]) was 3.05 ± 2.15^a cycles/year, the “B.Ar (Bone area, the total area within the periosteal surface)” value (“B.Ar” below) (Ovariectomized Primates [3]; [7]) was 54.94 ± 6.55 mm^2 and the “BFR/BS.Ec (bone formation rate, endocortical surface referent)” value (“BFR/BS.Ec” below) (Ovariectomized Primates [3]; [7]) was 14.89 ± 10.32 µm/day. For the same substance, the “BFR/BS.Ps (Bone formation rate, periosteal surface referent)” value (shortened to “BFR/BS.Ps”) (Ovariectomized Primates [3]; [7]) was 3.60 ± 3.84^a µm/day, the “BFR/BV (Bone formation rate, bone volume referent)” value (“BFR/BV” for short) (Ovariectomized Primates [3]; [7]) was 4.39 ± 3.48^a %/year and the “Ct.Ar (Cortical area)” value (Ovariectomized Primates [3]; [7]) was 38.10 ± 4.83 mm^2. The “FP (Formation period)” value (Ovariectomized Primates [3]; [7]) was 64.94 ± 11.99 days, the “L.On.N/Ct.A (Number of fluorochrome labeled osteons per unit cortical area)” value (Ovariectomized Primates [3]; [7]) was 0.50 ± 0.36^a #/mm^2 and the “MAR (Mineral apposition rate, intracortical)” value (Ovariectomized Primates [3]; [7]) was 1.06 ± 0.27 µm/day. The “MAR.Ec (Mineral apposition rate, endocortical surface)” value (Ovariectomized Primates [3]; [7]) was 0.66 ± 0.16 µm/day, the “MAR.Ps (mineral apposition rate, periosteal surface)” value (Ovariectomized Primates [3]; [7]) was 0.54 ± 0.15^a µm/day and the “MS/BS.Ec (mineralizing endocortical surface normalized to total endocortical surface)” value (Ovariectomized Primates [3]; [7]) was 11.74 ± 14.41^a %. The “MS/BS.Ps (Mineralizing periosteal surface normalized to total periosteal surface)” value (Ovariectomized Primates [3]; [7]) was 3.86 ± 4.83^a %, the “Me.Ar (Medullary cavity area)” value (Ovariectomized Primates [3]; [7]) was 16.84 ± 3.74 mm^2 and the “O.Wi (Osteoid width)” value (Ovariectomized Primates [3]; [7]) was 3.96 ± 0.83 µm. The “Po (Porosity, the percentage of bone area occupied by spaces)” value (Ovariectomized Primates [3]; [7]) was 2.23 ± 1.60%, the “Rs.N/Ct.A (number of resorption spaces per unit cortical area)” value (Ovariectomized Primates [3]; [7]) was 0.12 ± 0.07^a #/mm^2 and the “W.Wi (Osteonal wall width)” value (Ovariectomized Primates [3]; [7]) was 63.12 ± 17.35 µm. For the same substance, the “omt (Osteoid maturation time)” value (Ovariectomized Primates [3]; [7]) was 3.86 ± 0.74 days, the “Ac.F (Activation frequency)” value (Ovariectomized Primates [3]; PTH1: 1 µg/kg for 18 months) was 7.69 ± 4.96 cycles/year and the “B.Ar” value (Ovariectomized Primates [3]; PTH1: 1 µg/kg for 18 months) was 54.22 ± 5.97 mm^2. The “BFR/BS.Ec” value (Ovariectomized Primates [3]; PTH1: 1 µg/kg for 18 months) was 18.14 ± 13.95 µm/day, the “BFR/BS.Ps” value (Ovariectomized Primates [3]; PTH1: 1 µg/kg for 18 months) was 8.53 ± 10.54 µm/day and the “BFR/BV” value (Ovariectomized Primates [3]; PTH1: 1 µg/kg for 18 months) was 19.23 ± 5.93 %/year. For the same substance, the “Ct.Ar (Cortical area)” value (Ovariectomized Primates [3]; PTH1: 1 µg/kg for 18 months) was 37.61 ± 3.86 mm^2, the “FP (Formation period)” value (Ovariectomized Primates [3]; PTH1: 1 µg/kg for 18 months) was 63.44 ± 10.02 days and the “L.On.N/Ct.A (Number of fluorochrome labeled osteons per unit cortical area)” value (Ovariectomized Primates [3]; PTH1: 1 µg/kg for 18 months) was 1.26 ± 0.71 #/mm^2. The “MAR (Mineral apposition rate, intracortical)” value (Ovariectomized Primates [3]; PTH1: 1 µg/kg for 18 months) was 0.98 ± 0.12^a µm/day, the “MAR.Ec (Mineral apposition rate, endocortical surface)” value (Ovariectomized Primates [3]; PTH1: 1 µg/kg for 18 months) was 0.66 ± 0.15 µm/day and the “MAR.Ps (mineral apposition rate, periosteal surface)” value (Ovariectomized Primates [3]; PTH1: 1 µg/kg for 18 months) was 0.89 ± 0.95 µm/day. The “MS/BS.Ec (mineralizing endocortical surface normalized to total endocortical surface)” value (Ovariectomized Primates [3]; PTH1: 1 µg/kg for 18 months) was 25.19 ± 17.14%, the “MS/BS.Ps (Mineralizing periosteal surface normalized to total periosteal surface)” value (Ovariectomized Primates [3]; PTH1: 1 µg/kg for 18 months) was 8.59 ± 5.73% and the “Me.Ar (Medullary cavity area)” value (Ovariectomized Primates [3]; PTH1: 1 µg/kg for 18 months) was 16.61 ± 3.77 mm^2. For the same substance, the “O.Wi (Osteoid width)” value (Ovariectomized Primates [3]; PTH1: 1 µg/kg for 18 months) was 3.66 ± 0.67 µm, the “Po (Porosity, the percentage of bone area occupied by spaces)” value (Ovariectomized Primates [3]; PTH1: 1 µg/kg for 18 months) was 4.65 ± 4.78% and the “Rs.N/Ct.A (number of resorption spaces per unit cortical area)” value (Ovariectomized Primates [3]; PTH1: 1 µg/kg for 18 months) was 0.28 ± 0.18 #/mm^2. The “W.Wi (Osteonal wall width)” value (Ovariectomized Primates [3]; PTH1: 1 µg/kg for 18 months) was 61.36 ± 7.79 µm, the “omt (Osteoid maturation time)” value (Ovariectomized Primates [3]; PTH1: 1 µg/kg for 18 months) was 3.76 ± 0.70 days and the “Ac.F (Activation frequency)” value (Ovariectomized Primates [3]; [8]) was 2.05 ± 1.46^a cycles/year. For the same substance, the “B.Ar” value (Ovariectomized Primates [3]; [8]) was 58.16 ± 8.79^a mm^2, the “BFR/BS.Ec” value (Ovariectomized Primates [3]; [8]) was 12.73 ± 16.33^a µm/day and the “BFR/BS.Ps” value (Ovariectomized Primates [3]; [8]) was 5.79 ± 4.05 µm/day. For the same substance, the “BFR/BV” value (Ovariectomized Primates [3]; [8]) was 2.21 ± 1.73^a %/year, the “Ct.Ar (Cortical area)” value (Ovariectomized Primates [3]; [8]) was 40.83 ± 5.80^a mm^2 and the “FP (Formation period)” value (Ovariectomized Primates [3]; [8]) was 88.63 ± 52.90 days.
